# Starred links: 1 amine or outer side, 2 acyl side, 3 side chain; linkers in the order of their positions; H or OH if unused. Non-standard residues stand in square brackets, D forms with d. Residues, ends and D or L forms follow the SMILES beside them. X10 = NCCCC[C@H](NC(=S)[C@@H](Cc1c[nH]c2ccccc12)N[*:1])C(=O)[*:2]; X7 = C[C@@H](O)[C@H](NC(=S)[C@H](CCCCN)N[*:1])C(=O)[*:2]
# Columns and labels:
# [1] = target: T1, SSTR5 (Homo sapiens, UniProt P35346); test: GloSensor assay, inhibition of forskolin-induced cAMP production; type: cell-based
# T1 construct: expressed in transfected cells; host or cells: HEK-293T (CRL-3216)
# Experimental: HEK-293T cells (CRL-3216 from ATCC, procured from NCCS, Pune) were co-transfected with human somatostatin receptor subtypes 2 & 5, plasmid cDNA, and cAMP biosensor (pGloSensorTM-22F plasmid; Promega Corp.) using PEImax. Ligand incubation was followed by the addition and incubation of forskolin (FSK) to the plate. Dose-dependent inhibition of forskolin-induced cAMP production by the peptide ligands was measured using a luminescence plate reader. An elaborate description of the assay setup has been provided in Supplementary Information.
# [2] = PAMPA passive permeability; type: in vitro ADME; details: Pe;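 note: passive permeability across an artificial membrane in 96-well pre-coated PAMPA plates, which lack transporters and efflux systems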
# Experimental: Encouraged by this, the passive permeability of the analogs was evaluated using an artificial membrane (PAMPA), which measures permeability of compounds in the absence of transporters and efflux systems[32].
# 96-well BD Corning® pre-coated PAMPA plates were used following the supplier’s protocol, details in Supplementary Information.
# [3] = system: pancreatin
# [4] = system: growth hormone (GH) release; test: In vivo inhibition of growth hormone release (sandwich ELISA); set-up: species or system rats; details: for AUC 0_24: growth hormone AUC 0-24 h; for AUC 0_24 / AUC 0_48 / AUC 24_48: mean of n = 3; for AUC 0_48: growth hormone AUC 0-48 h; for AUC 24_48: growth hormone AUC 24-48 h
# Experimental: In vivo inhibition of GH. Finally, we estimated the in vivo efficacy of 13 and the thioamidated analogs 13b, 13d, and 13e in suppressing the release of growth hormone (GH) post subcutaneous injection at 250 μg/kg dosage (Fig. 7e). 13a was also included as a negative control to assess its effect on GH release. The rats were bled from their orbital sinus, and the plasma GH levels were evaluated through sandwich ELISA. […] This correlates well with the high plasma concentration of 13 at the initial time points and a rapid drop within 2 h of s.c. administration (Fig. 7c). […] In contrast, the inhibitory effect lasts longer in 13b, 13d, and 13e showing a significant reduction in plasma GH levels within 24–48 h (Fig. 7h). […] The rapid drop in plasma concentration of 13 is responsible for its least in vivo efficacy.
# Animal housing and acclimatization were done at Central Animal Facility, IISc Bangalore, as mentioned in the previous section, following protocols from the IEAC and CPCSEA. […] Samples were processed as discussed in Supplementary Information, and sandwich ELISA was performed to measure the growth hormone level in blood plasma. For acute toxicity, after peptide injection (s.c.), blood samples were collected on the 14th day for liver and kidney function tests.
# [5] = physchem; details: pH 7.4
# [6] = in vivo; details: male, rat, sc; for half-life: Sprague-Dawley
# Experimental: Subsequently, we selected 13a, 13b, 13d, and 13e for assessing their plasma exposure post single dose subcutaneous injection into male Sprague Dawley rats.
# All animals were housed individually in the animal facility at Anthem Biosciences Pvt. Ltd and were acclimatized for 3 days. All animals were fasted overnight before dosing, whereas access to water was provided ad libitum. Peptides were administered orally and via s.c. route and blood samples were collected at different time points through a jugular vein catheter.
# [7] = in vitro; details: both, human, plasma
# Experimental: Blood was freshly drawn from three healthy adults, two male and one person of 26–28 year old. […] The plasma was separated by centrifugation. […] For checking metabolic stability, the required volume of plasma was pre-incubated at 37 °C prior to the experiment for 2 min, followed by spiking with the peptides. At different time points, plasma was aliquoted. The supernatant was separated and used for RP-HPLC quantification. Rapid Equilibrium Dialysis (RED) assay was performed to assess the plasma protein binding of the peptides following the supplier’s protocol.
# [8] = type: physicochemical
# [9] = target: T2, SSTR2 (Homo sapiens, UniProt P30874); test: GloSensor assay, inhibition of forskolin-induced cAMP production; type: cell-based; details: for IC50: read-out: IC50 sstr2
# T2 construct: expressed in transfected cells; host or cells: HEK-293T (CRL-3216)
# [10] = in vitro; details: both, human, plasma; remark: listed apart in the source
# T1 sequence (P35346 whole entry): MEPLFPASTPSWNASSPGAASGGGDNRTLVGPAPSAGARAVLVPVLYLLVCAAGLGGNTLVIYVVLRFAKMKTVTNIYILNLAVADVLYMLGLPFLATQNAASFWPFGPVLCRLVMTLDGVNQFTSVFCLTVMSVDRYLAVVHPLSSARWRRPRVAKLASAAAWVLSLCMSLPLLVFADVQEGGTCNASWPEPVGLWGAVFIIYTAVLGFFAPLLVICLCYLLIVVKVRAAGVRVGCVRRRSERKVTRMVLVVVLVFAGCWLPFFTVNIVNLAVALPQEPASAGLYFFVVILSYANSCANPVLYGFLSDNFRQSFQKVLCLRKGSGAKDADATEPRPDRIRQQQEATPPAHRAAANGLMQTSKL
# T2 sequence (P30874 whole entry): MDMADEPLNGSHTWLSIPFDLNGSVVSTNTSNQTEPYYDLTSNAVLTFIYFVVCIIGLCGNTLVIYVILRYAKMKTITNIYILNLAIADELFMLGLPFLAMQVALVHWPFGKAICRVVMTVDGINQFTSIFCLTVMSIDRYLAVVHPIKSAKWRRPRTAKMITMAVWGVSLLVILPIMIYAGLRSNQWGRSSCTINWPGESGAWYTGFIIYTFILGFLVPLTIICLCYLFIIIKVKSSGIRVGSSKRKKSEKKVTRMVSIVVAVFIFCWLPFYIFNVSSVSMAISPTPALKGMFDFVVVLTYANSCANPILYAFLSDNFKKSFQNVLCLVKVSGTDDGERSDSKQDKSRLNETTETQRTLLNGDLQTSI
Compound,IC50 [1],"binding against SSTR5 (in words) ([1]; HEK293T cells expressing SSTR5, cAMP GloSensor)",Papp [2],t1/2 in SIF [3],AUC 0_24 [4],AUC 0_48 [4],AUC 24_48 [4],logD [5],level at 0.5 h ([6]; Sprague Dawley),level at 1 h ([6]; Sprague Dawley),"level at 2 h ([6]; Sprague Dawley, 250 ug/kg)",half-life [6],fraction unbound [7],logD heptane ethylene glycol [8],"binding against SSTR2 (in words) ([9]; HEK293T cells expressing SSTR2, cAMP GloSensor)",IC50 [9],half-life [10],"inhibition of unstimulated GH release ([4]; rats, 250 μg/kg s.c., plasma GH by sandwich ELISA over 48 h)"
C[C@@H](O)[C@@H]1NC(=O)[C@H](CCCCN)NC(=S)[C@@H](Cc2c[nH]c3ccccc23)NC(=O)[C@H](Cc2ccccc2)NC(=O)[C@@H]2CCCN2C(=O)[C@H](Cc2ccccc2)NC1=O [13a] (cyclo(FPF[X10]T)),> 10000 nM,complete loss in binding,2.45 ×10⁻⁶ cm/s,over 72 h,1085 ng·h/mL,2274 ng·h/mL,1188 ng·h/mL,-0.65,146 ng/mL,107 ng/mL,40 ng/mL,0.7 ± 0.1 h,0.11,-0.94,complete loss in binding,> 10000 nM,34 h,
C[C@@H](O)[C@@H]1NC(=S)[C@H](CCCCN)NC(=O)[C@@H](Cc2c[nH]c3ccccc23)NC(=O)[C@H](Cc2ccccc2)NC(=O)[C@@H]2CCCN2C(=O)[C@H](Cc2ccccc2)NC1=O [13b] (cyclo(FPF[dW][X7])),228 ± 41.9 nM,,2.92 ×10⁻⁶ cm/s,over 72 h,436 ng·h/mL,1134 ng·h/mL,668 ng·h/mL,-0.64,72 ng/mL,44 ng/mL,,0.6 ± 0.2 h,0.14,-0.83,,15.6 ± 4.3 nM,32 h,significant inhibition

# From PMC10539501 (Nature Communications, 2023)
